This note sets out measurements from BindingDB's records for patent US10053463 (Janssen Pharmaceutica NV, 2018).

pKi: −log10 of the molar value.

In the test the target is T1, P2X purinoceptor 7 (Homo sapiens, UniProt Q99572).
T1 sequence (Q99572 whole entry): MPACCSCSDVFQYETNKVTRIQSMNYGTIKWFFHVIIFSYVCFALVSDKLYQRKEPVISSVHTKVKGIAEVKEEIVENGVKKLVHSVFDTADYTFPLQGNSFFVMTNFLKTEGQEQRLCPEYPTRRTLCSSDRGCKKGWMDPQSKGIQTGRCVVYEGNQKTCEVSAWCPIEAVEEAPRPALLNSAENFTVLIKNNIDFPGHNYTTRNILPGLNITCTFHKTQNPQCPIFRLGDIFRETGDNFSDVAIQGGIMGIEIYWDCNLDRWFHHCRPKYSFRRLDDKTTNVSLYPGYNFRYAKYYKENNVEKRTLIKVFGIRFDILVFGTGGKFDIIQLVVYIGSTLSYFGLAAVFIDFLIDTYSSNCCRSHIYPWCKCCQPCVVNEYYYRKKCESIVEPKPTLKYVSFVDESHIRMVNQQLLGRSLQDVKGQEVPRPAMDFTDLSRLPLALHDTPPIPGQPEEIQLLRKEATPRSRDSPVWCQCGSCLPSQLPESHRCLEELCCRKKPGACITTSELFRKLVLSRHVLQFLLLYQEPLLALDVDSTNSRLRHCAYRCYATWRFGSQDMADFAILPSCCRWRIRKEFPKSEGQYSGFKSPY
The experiment in a line: P2X7 Radioligand Binding. As to the method: human or rat P2X7-1321N1 cells were collected and frozen @−80° C. On the day of the experiment, cell membrane preparations were made according to standard published methods. […] The compound can be prepared as described in the literature. […] The assay was terminated by filtration (GF/B filters pre-soaked with 0.3% PEI) and washed with washing buffer (Tris-HCl 50 mM). The IC50 generated in the binding assay was corrected for tracer concentration and affinity of the tracer to derive at the affinity (K) of the test compounds. […] Data are analyzed and graphed on Graphpad Prism 5.
The pKi is the Ki on a negative log10 scale, so that one unit is a factor of ten. Higher therefore signals a low Ki. In the case of `O=C1NCCn2c1nnc2-c1cnccn1` [US10053463, 1], the pKi is 7.20.

`NNC(=O)c1ncccn1` [US10053463, 8] had a pKi of 7.70.

Compound `NNC(=O)c1ccncn1` [US10053463, 9] showed a negative-log Ki (pKi) of 8.00.
